Measured values as given in patent US20120258967A1, “PI3 KINASE INHIBITORS AND USES THEREOF” (AVILA THERAPEUTICS, INC., priority 2011, published 2012).

molecular target: T1, PI3Kα (p110α/p85α) (Homo sapiens, UniProt P42336); assay: HTRF assay, potency against active PI3Kα; assay type: biochemical; conditions: [ATP]=50 μM, read-out: PI3Kα Inhibition
T1 construct: purchased BPS Bioscience or Millipore
Method: Compounds of the present invention are assayed as inhibitors of PI3 kinases using the following general protocol.
Homogeneous Time Resolved Fluorescence (HTRF) Assay Protocol for Potency Assessment Against the Active Forms of PI3Kα, PI3Kβ, and PI3Kγ
The protocol below describes an end-point, competition-binding HTRF assay used to measure inherent potency of test compounds against active PI3Kα (p110α/p85α), PI3Kβ (p110β/p85α), and PI3Kγ (p120γ) enzymes. The mechanics of the assay platform are best described by the vendor (Millipore, Billerica, Mass.) on their website at the following URL: www.millipore.com/coa/tech1/74jt4z.
Briefly, Stop solution (Stop A, #33-007 and Stop B, #33-009; 3:1 ratio) and Detection Mix (from DMC, #33-015 with DMA, #33-011 and DMB, #33-013; 18:1:1 ratio) were prepared as recommended by the manufacturer about 2 hrs prior to use. Additionally, 1× reaction buffer (from 4× buffer stock #33-003), 1.4× stocks of PI3Kα, PI3Kβ, and PI3Kγ enzymes from BPS Bioscience (San Diego, Calif.) or Millipore (Billerica, Mass.) with di-C8-PIP2 lipid substrate (#33-005), and a 4×ATP solution (#A7699 Sigma/Aldrich; St. Louis, Mo.) were prepared in 1× reaction buffer. 15 μL of PI3K enzymes and lipid substrate mix were pre-incubated in a Corning (#3573) 384-well, black, non-treated microtiter plate (Corning, N.Y.) for 30 min at 25° C. with a 0.5 μL volume of 50% DMSO and serially diluted compounds prepared in 50% DMSO. Lipid kinase reactions were started with the addition of 5 μL of ATP solution, mixed for 15 sec on a rotary plate shaker and incubated for 30-60 minutes at 25° C. Next, reactions were stopped with a 5 μL addition of Stop solution immediately followed by a 5 μL volume of Detection Mix. Stopped reactions were equilibrated for 1 and 18 hrs at room temperature and read in a Synergy^4 plate reader from BioTek (Winooski, Vt.) at λex 330-80/λem 620-35 and λem 665-7.5. At the conclusion of each assay, the HTRF ratio from fluorescence emission values for each well was calculated and % Inhibition determined from averaged controls wells (+/−PI3K enzyme). % Inhibition values for each compound were then plotted against inhibitor concentration to estimate IC50 from log [Inhibitor]vs Response, Variable Slope model in GraphPad Prism from GraphPad Software (San Diego, Calif.).
[Reagent] used in optimized protocol:
(ATP KMapp for both enzymes was estimated to be 40-70 μM)

T1 sequence (P42336 whole entry): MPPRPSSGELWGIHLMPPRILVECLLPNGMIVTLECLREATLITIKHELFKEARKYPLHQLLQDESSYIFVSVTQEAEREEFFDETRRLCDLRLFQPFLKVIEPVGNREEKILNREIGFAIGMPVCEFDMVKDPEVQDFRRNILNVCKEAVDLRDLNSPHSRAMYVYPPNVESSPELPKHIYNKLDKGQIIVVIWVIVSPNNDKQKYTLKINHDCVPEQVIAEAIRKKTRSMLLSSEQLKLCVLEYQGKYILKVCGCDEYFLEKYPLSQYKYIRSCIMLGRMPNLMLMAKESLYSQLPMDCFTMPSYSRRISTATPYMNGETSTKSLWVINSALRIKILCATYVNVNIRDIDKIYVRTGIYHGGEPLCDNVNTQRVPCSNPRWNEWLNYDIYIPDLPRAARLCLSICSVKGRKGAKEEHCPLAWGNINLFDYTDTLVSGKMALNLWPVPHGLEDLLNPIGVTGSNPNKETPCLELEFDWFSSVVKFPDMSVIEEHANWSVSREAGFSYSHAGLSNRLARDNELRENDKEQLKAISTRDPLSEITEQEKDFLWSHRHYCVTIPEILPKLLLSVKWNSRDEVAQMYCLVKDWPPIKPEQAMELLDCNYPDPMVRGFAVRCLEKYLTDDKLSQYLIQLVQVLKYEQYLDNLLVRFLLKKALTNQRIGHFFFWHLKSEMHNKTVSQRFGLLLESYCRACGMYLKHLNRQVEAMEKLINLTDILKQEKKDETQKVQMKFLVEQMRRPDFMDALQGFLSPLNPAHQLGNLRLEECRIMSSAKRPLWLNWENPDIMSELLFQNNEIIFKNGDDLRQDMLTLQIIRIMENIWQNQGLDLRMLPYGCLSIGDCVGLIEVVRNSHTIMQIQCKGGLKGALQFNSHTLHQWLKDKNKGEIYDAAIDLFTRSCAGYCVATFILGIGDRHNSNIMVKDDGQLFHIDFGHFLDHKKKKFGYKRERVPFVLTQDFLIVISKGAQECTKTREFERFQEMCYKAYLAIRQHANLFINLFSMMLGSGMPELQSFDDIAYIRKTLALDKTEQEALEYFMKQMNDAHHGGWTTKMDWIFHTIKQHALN
T1 sequence (P27986 whole entry partner): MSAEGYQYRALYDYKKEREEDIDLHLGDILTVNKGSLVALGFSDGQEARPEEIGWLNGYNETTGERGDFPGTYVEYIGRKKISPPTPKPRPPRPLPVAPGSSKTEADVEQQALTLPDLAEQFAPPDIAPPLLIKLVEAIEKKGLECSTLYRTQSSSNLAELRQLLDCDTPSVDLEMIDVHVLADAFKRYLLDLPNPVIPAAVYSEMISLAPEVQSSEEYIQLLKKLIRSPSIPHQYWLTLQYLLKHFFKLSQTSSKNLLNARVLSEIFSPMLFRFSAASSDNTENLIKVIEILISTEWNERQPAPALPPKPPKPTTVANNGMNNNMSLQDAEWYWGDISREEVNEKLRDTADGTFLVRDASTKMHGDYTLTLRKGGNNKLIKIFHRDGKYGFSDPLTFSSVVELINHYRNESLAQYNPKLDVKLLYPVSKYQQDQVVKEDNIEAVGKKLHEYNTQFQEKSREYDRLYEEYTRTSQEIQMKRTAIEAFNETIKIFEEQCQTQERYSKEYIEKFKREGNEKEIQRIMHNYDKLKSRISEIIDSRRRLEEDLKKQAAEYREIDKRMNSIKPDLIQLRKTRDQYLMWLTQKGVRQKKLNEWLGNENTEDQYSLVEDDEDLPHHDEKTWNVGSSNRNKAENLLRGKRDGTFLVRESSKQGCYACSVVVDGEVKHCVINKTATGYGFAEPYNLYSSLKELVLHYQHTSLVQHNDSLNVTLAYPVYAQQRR

| SMILES | IC50 |
| --- | --- |
| CC(C)=CC(=O)CCC(=O)N1CCN(c2ccc(-c3cc(-c4cnc(N)nc4)nc(N4CCOCC4)c3)cc2)CC1 [I-1, 1-(4-(4-(2-(2-aminopyrimidin-5-yl)-6-morpholinopyridin-4-yl)phenyl)piperazin-1-yl)-6-methylhept-5-ene-1,4-dione] | 100 to 1000 nM |
| CC(C)=CC(=O)CCC(=O)Nc1ccc(C#Cc2cc(-c3cnc(N)nc3)nc(N3CCOCC3)c2)cc1 [I-2, N-(4-((2-(2-aminopyrimidin-5-yl)-6-morpholinopyridin-4-yl)ethynyl)phenyl)-6-methyl-4-oxohept-5-enamide] | 10 to 100 nM |
| C/C=C/C(=O)Nc1ccc(CC(=O)N2CC=C(c3cc(-c4cnc(N)nc4)nc(N4CCOCC4)c3)CC2)cc1 [I-3] | 100 to 1000 nM |
| Nc1ncc(-c2cc(C3=CCN(C(=O)Cc4ccc(NC(=O)/C=C(\C5CC5)C(F)(F)F)cc4)CC3)cc(N3CCOCC3)n2)cn1 [I-4] | 10 to 100 nM |
| Nc1ncc(-c2cc(C3=CCN(C(=O)Cc4ccc(NC(=O)/C=C(\c5ccccc5)C(F)(F)F)cc4)CC3)cc(N3CCOCC3)n2)cn1 [I-5] | 10 to 100 nM |
| C/C(=C\C(=O)Nc1ccc(CC(=O)N2CC=C(c3cc(-c4cnc(N)nc4)nc(N4CCOCC4)c3)CC2)cc1)C(F)(F)F [I-6] | 100 to 1000 nM |
| C/C(=C/C(=O)Nc1ccc(CC(=O)N2CC=C(c3cc(-c4cnc(N)nc4)nc(N4CCOCC4)c3)CC2)cc1)C(F)(F)F [I-7] | 100 to 1000 nM |
| CC(C)/C(=C\C(=O)Nc1ccc(CC(=O)N2CC=C(c3cc(-c4cnc(N)nc4)nc(N4CCOCC4)c3)CC2)cc1)C(F)(F)F [I-8] | 100 to 1000 nM |
| CC(C)/C(=C/C(=O)Nc1ccc(CC(=O)N2CC=C(c3cc(-c4cnc(N)nc4)nc(N4CCOCC4)c3)CC2)cc1)C(F)(F)F [I-9] | 10 to 100 nM |
| C/C=C/C(=O)Nc1ccc(CC(=O)N2CCN(c3cc(-c4cnc(N)nc4)nc(N4CCOCC4)c3)CC2)cc1 [I-10] | 100 to 1000 nM |
| Nc1ncc(-c2cc(N3CCN(C(=O)Cc4ccc(NC(=O)/C=C(\C5CC5)C(F)(F)F)cc4)CC3)cc(N3CCOCC3)n2)cn1 [I-11] | 10 to 100 nM |
| Nc1ncc(-c2cc(N3CCN(C(=O)Cc4ccc(NC(=O)/C=C(\c5ccccc5)C(F)(F)F)cc4)CC3)cc(N3CCOCC3)n2)cn1 [I-12] | 10 to 100 nM |
| C/C(=C\C(=O)Nc1ccc(CC(=O)N2CCN(c3cc(-c4cnc(N)nc4)nc(N4CCOCC4)c3)CC2)cc1)C(F)(F)F [I-13] | 100 to 1000 nM |
| C/C(=C/C(=O)Nc1ccc(CC(=O)N2CCN(c3cc(-c4cnc(N)nc4)nc(N4CCOCC4)c3)CC2)cc1)C(F)(F)F [I-14] | 100 to 1000 nM |
| CC(C)/C(=C\C(=O)Nc1ccc(CC(=O)N2CCN(c3cc(-c4cnc(N)nc4)nc(N4CCOCC4)c3)CC2)cc1)C(F)(F)F [I-15] | 100 to 1000 nM |
| CC(C)/C(=C/C(=O)Nc1ccc(CC(=O)N2CCN(c3cc(-c4cnc(N)nc4)nc(N4CCOCC4)c3)CC2)cc1)C(F)(F)F [I-16] | 10 to 100 nM |
| C=CC(=O)Nc1ccc2sc(N3CCN(c4cc(-c5cnc(N)nc5)nc(N5CCOCC5)c4)CC3)nc2c1 [I-17] | 10 to 100 nM |

molecular target: T2, PI3Kα (Homo sapiens, UniProt P42336); assay: Mass spectrometry for PI3K (covalent modification of intact protein, MALDI); assay type: binding; conditions: not given
T2 construct: purchased Millipore 14-602
T2 sequence (P42336 whole entry): as the sequence (P42336 whole entry) above
T2 sequence (P27986 whole entry partner): as the sequence (P27986 whole entry partner) above
Method: Mass Spectrometry for PI3K
Intact PI3Kα (Millipore, 14-602) was incubated for 1 hr at a 10-fold excess of I-11 to protein. Aliquots (5 μl) of the samples were diluted with 15 μl of 0.2% TFA prior to micro C4 ZipTipping directly onto the MALDI target using Sinapinic acid as the desorption matrix (10 mg/mL in 0.1% TFA:Acetonitrile 50:50). […] Other compounds that modify PI3Kα >50% after 1 hr include I-1, I-2, I-12, I-17, and I-19.

| SMILES | covalent modification of PI3Kα by MS analysis (FIG. 1) |
| --- | --- |
| Nc1ncc(-c2cc(N3CCN(C(=O)Cc4ccc(NC(=O)/C=C(\C5CC5)C(F)(F)F)cc4)CC3)cc(N3CCOCC3)n2)cn1 [I-11] | confirming covalent modification |

same assay, conditions: intact PI3Kα incubated 1 hr, 10-fold excess of compound to protein

| SMILES | modification of PI3Kα |
| --- | --- |
| Nc1ncc(-c2cc(N3CCN(C(=O)Cc4ccc(NC(=O)/C=C(\C5CC5)C(F)(F)F)cc4)CC3)cc(N3CCOCC3)n2)cn1 [I-11] | 87% |

same assay, conditions: intact PI3Kα incubated 1 hr, 10-fold excess of compound, MALDI centroid mass

| SMILES | mass shift of PI3K after incubation with compound |
| --- | --- |
| Nc1ncc(-c2cc(N3CCN(C(=O)Cc4ccc(NC(=O)/C=C(\C5CC5)C(F)(F)F)cc4)CC3)cc(N3CCOCC3)n2)cn1 [I-11] | 555 Da |
